The values that follow are results of earlier work, collected in PubChem BioAssay AID1259409 (Chemical Carcinogenesis Research Information System (CCRIS), 2018).

The data set has as its system rodent chemically induced tumor inhibition, incidence and multiplicity. Description: CCRIS tumor inhibitor studies. The conditions noted are these: Carcinogen: N-NITROSOBIS(2-OXYPROPYL)AMINE, 60599-38-4, Route [Inhibitor]: ORAL, Species: HAMSTER, Promoter: NONE USED. From the text: The CCRIS database contains chemical records with carcinogenicity, mutagenicity, tumor promotion, and tumor inhibition test results. It was developed by the National Cancer Institute (NCI). Data are derived from studies cited in primary journals, current awareness tools, NCI reports, and other sources. Test results have been reviewed by experts in carcinogenesis and mutagenesis.
CCRIS provides historical information from the years 1985 - 2011. It is no longer updated.
This is an archive assay for CCRIS tumor inhibitor studies.

Molecules are shown by their SMILES.

Regarding `CC1=C(/C=C/C(C)=C/C=C/C(C)=C/C(=O)NCCO)C(C)(C)CCC1`, the “tumour outcome (control, treated, inhibition, significance)” value reads like this: (Dose [Inhibitor]: 0.05, 0.1 OR 0.2 MILLIMOLAR/KG DIET FOR 32 WK STARTING 1 WK AFTER THE CARCINOGEN DOSE (STUDY DURATION: 33 WK), Strain/Sex: SYRIAN/FEMALE, Target Tissue: Type of Lesion: COMMON DUCT: ADENOMA, Dose [Carcinogen]: 40 MG/KG ONCE) 4/10 (40%), 19/29 (66%), -65%, not significant; (Dose [Inhibitor]: 0.05, 0.1 OR 0.2 MILLIMOLAR/KG DIET FOR 32 WK STARTING 1 WK AFTER THE CARCINOGEN DOSE (STUDY DURATION: 33 WK), Strain/Sex: SYRIAN/FEMALE, Target Tissue: Type of Lesion: GALL BLADDER: ADENOMA, Dose [Carcinogen]: 40 MG/KG ONCE) 6/10 (60%), 17/29 (59%), 2%, not significant; (Dose [Inhibitor]: 0.05, 0.1 OR 0.2 MILLIMOLAR/KG DIET FOR 32 WK STARTING 1 WK AFTER THE CARCINOGEN DOSE (STUDY DURATION: 33 WK), Strain/Sex: SYRIAN/FEMALE, Target Tissue: Type of Lesion: LUNG: ADENOMA, Dose [Carcinogen]: 40 MG/KG ONCE) 3/10 (30%), 4/29 (14%), 53%, p<0.025; (Dose [Inhibitor]: 0.05, 0.1 OR 0.2 MILLIMOLAR/KG DIET FOR 32 WK STARTING 1 WK AFTER THE CARCINOGEN DOSE (STUDY DURATION: 33 WK), Strain/Sex: SYRIAN/FEMALE, Target Tissue: Type of Lesion: PANCREAS: ADENOMA, Dose [Carcinogen]: 40 MG/KG ONCE) 10/10 (100%), 29/29 (100%), 0%, not significant; (Dose [Inhibitor]: 0.05, 0.1 OR 0.2 MILLIMOLAR/KG DIET FOR 32 WK STARTING 1 WK AFTER THE CARCINOGEN DOSE (STUDY DURATION: 33 WK), Strain/Sex: SYRIAN/FEMALE, Target Tissue: Type of Lesion: PANCREAS: CARCINOMA, Dose [Carcinogen]: 40 MG/KG ONCE) 4/10 (40%), 15/29 (52%), -30%, not significant; (Dose [Inhibitor]: 0.05, 0.1 OR 0.2 MILLIMOLAR/KG DIET FOR 32 WK STARTING 1 WK AFTER THE CARCINOGEN DOSE (STUDY DURATION: 33 WK), Strain/Sex: SYRIAN/MALE, Target Tissue: Type of Lesion: COMMON DUCT: ADENOMA, Dose [Carcinogen]: 40 MG/KG ONCE) 4/12 (33%), 23/29 (79%), -139%, not significant. The “tumour outcome (control, treated, inhibition, significance)” value by setting is: (Dose [Inhibitor]: 0.05, 0.1 OR 0.2 MILLIMOLAR/KG DIET FOR 32 WK STARTING 1 WK AFTER THE CARCINOGEN DOSE (STUDY DURATION: 33 WK), Strain/Sex: SYRIAN/MALE, Target Tissue: Type of Lesion: GALL BLADDER: ADENOMA, Dose [Carcinogen]: 40 MG/KG ONCE) 3/12 (25%), 17/29 (59%), -136%, not significant; (Dose [Inhibitor]: 0.05, 0.1 OR 0.2 MILLIMOLAR/KG DIET FOR 32 WK STARTING 1 WK AFTER THE CARCINOGEN DOSE (STUDY DURATION: 33 WK), Strain/Sex: SYRIAN/MALE, Target Tissue: Type of Lesion: LIVER: ADENOMA, Dose [Carcinogen]: 40 MG/KG ONCE) 6/12 (50%), 8/29 (28%), 44%, not significant; (Dose [Inhibitor]: 0.05, 0.1 OR 0.2 MILLIMOLAR/KG DIET FOR 32 WK STARTING 1 WK AFTER THE CARCINOGEN DOSE (STUDY DURATION: 33 WK), Strain/Sex: SYRIAN/MALE, Target Tissue: Type of Lesion: LUNG: ADENOMA, Dose [Carcinogen]: 40 MG/KG ONCE) 1/12 (8%), 5/29 (17%), -113%, not significant; (Dose [Inhibitor]: 0.05, 0.1 OR 0.2 MILLIMOLAR/KG DIET FOR 32 WK STARTING 1 WK AFTER THE CARCINOGEN DOSE (STUDY DURATION: 33 WK), Strain/Sex: SYRIAN/MALE, Target Tissue: Type of Lesion: PANCREAS: ADENOMA, Dose [Carcinogen]: 40 MG/KG ONCE) 12/12 (100%), 29/29 (100%), 0%, not significant; (Dose [Inhibitor]: 0.05, 0.1 OR 0.2 MILLIMOLAR/KG DIET FOR 32 WK STARTING 1 WK AFTER THE CARCINOGEN DOSE (STUDY DURATION: 33 WK), Strain/Sex: SYRIAN/MALE, Target Tissue: Type of Lesion: PANCREAS: CARCINOMA, Dose [Carcinogen]: 40 MG/KG ONCE) 6/12 (50%), 10/29 (34%), 32%, not significant; (Dose [Inhibitor]: 0.05, 0.1 OR 0.2 MM/KG DIET FOR 32 WK STARTING 1 WK AFTER THE CARCINOGEN DOSE (STUDY DURATION: 33 WK), Strain/Sex: SYRIAN/FEMALE, Target Tissue: Type of Lesion: PANCREAS: ADENOCARCINOMA, Dose [Carcinogen]: 40 MG/KG, ONCE, ONE WK PRIOR TO START OF AGENT TREATMENT) 2/10 (20%), 2/29 (7%), 65%, not significant.
